Data as given in US20240360215A1, “ANTI-CD19 ANTIBODY IN THE TREATMENT OF CNS LYMPHOMA” (The Regents of the University of California, priority 2023, published 2024).
“Also recorded” adds a separate entry of the source.

Experiments:
Type in all cases: in vivo, human
relapsed CNS lymphoma = assay: phase I trial of tafasitamab plus lenalidomide in relapsed CNS lymphoma (NCT05351593); conditions: Patient 2; lenalidomide 15 mg/day, off study
Procedure: This patient's disease previously progressed on lenalidomide monotherapy at a higher dose of 15 mg/day.
The role of tafasitamab in these cases is evident based on prior resistance to lenalidomide, pomalidomide and rituximab.
Three were treated at the 10 mg lenalidomide dose level and one at the 15 mg lenalidomide dose level. […] The longest response duration was six months.
Illustrative responses of patient 2 in this study are depicted in FIG. 1.

primary CNS lymphoma = assay: illustrative treatment of second patient (multifocal primary CNS lymphoma, large B-cell type), MRI follow-up
Procedure: At first relapse they were re-treated with MTR followed by lenalidomide maintenance (5 mg/day) with intermittent high-dose methotrexate/rituximab every 4 months, resulting in sustained disease control on MRI for 3 years. At progression on lenalidomide they were re-challenged with MTR but immediately experienced growth of new lesions in the left frontal lobe, centrum semiovale and splenium of the corpus callosum. […] However, the corpus callosal lesion was resistant. […] (For image, see, Rauschecker et al., Br J Haematol, 201:154-157, first published January 23 2023).

secondary CNS lymphoma = assay: illustrative treatment of first patient (large-B cell lymphoma, CNS relapse), MRI follow-up; conditions: for severe treatment-related toxicities requiring inpatient management: earlier therapies
Source text: Staging documented concomitant right adrenal involvement. Treatment at an outside institution consisted of six cycles of high-dose methotrexate (HD-MTX) intercalated with rituximab, cyclophosphamide, adriamycin, vincristine, prednisone (R-CHOP) plus intrathecal cytarabine, also six cycles. At 7 months there was multifocal CNS progression and the patient was transferred to a tertiary care center where they received eight cycles of HD-MTX, six doses of temozolomide plus rituximab (MTR), consolidation with etoposide-ara-C (Soussain et al, J. Clin. Oncol 19:[…]; Rubenstein et al, J. Clin Oncol. 31:3061-8, 2013) followed by autologous stem cell transplantation and lenalidomide maintenance. However, at 6 months after transplantation, multifocal CNS progression was again evident on magnetic resonance imaging (MRI). This second relapse was treated with repeat HD-MTX (eight cycles) plus rituximab followed by focal irradiation to a refractory lesion in the right postcentral gyrus, followed by pomalidomide maintenance, resulting in a CNS response duration of nearly 2 years. A third isolated CNS relapse manifested by new multifocal lesions with mild left-to-right midline shift.
Ibrutinib was therefore discontinued and the patient continued on lenalidomide (10 mg/day), now co-administered with intravenous tafasitamab (12 mg/kg), without dexamethasone, following the schedule of the L-MIND study. […] The patient continues twice monthly infusion of tafasitamab, plus lenalidomide days 1-21, and remains in radiographic remission, both in brain and systemically, at 22 months since starting this combination.

SMILES	disease response to earlier lenalidomide monotherapy (relapsed CNS lymphoma)	sustained disease control on MRI (primary CNS lymphoma; first relapse, MTR then lenalidomide maintenance 5 mg/day with intermittent high-dose methotrexate/rituximab every 4 months)	response duration (primary CNS lymphoma; lenalidomide maintenance 5 mg/day, days 1-21, after complete response with MTR)	time to multifocal CNS progression on MRI after transplantation (secondary CNS lymphoma; lenalidomide maintenance after autologous stem cell transplantation)	severe treatment-related toxicities requiring inpatient management (secondary CNS lymphoma)	CNS response duration (secondary CNS lymphoma; pomalidomide maintenance after repeat HD-MTX plus rituximab and focal irradiation)
Nc1cccc2c1CN(C1CCC(=O)NC1=O)C2=O (stereo not shown) [lenalidomide]	progressed; also recorded: refractory	3 years	17 months	6 months		
Nc1cccc2c1C(=O)N(C1CCC(=O)NC1=O)C2=O (stereo not shown) [pomalidomide]					two independent episodes of pneumonia, associated with respiratory syncytial virus and later, aspergillosis	~2 years
C=CC(=O)N1CCC[C@@H](n2nc(-c3ccc(Oc4ccccc4)cc3)c3c(N)ncnc32)C1 [ibrutinib]					pancytopenia, gastrointestinal bleeding, and necrotizing gangrenous cholecystitis	
